In the oligonucleotide strings, read from the 5' end, every base follows the letter of its sugar. An asterisk marks phosphorothioate; unmarked linkages are phosphodiester. Other units and linkages are bracketed, terminal groups are in braces. A string of capitals states the bases alone. {NAG37} = tridentate N-acetyl-galactosamine targeting ligand, structure (NAG37)s; [invAb] = inverted abasic unit; m = 2'-O-methyl; f = 2'-fluoro
What was measured:
ANGPTL3 protein = assay: Example 13: serum ANGPTL3 protein in HFCS diet-fed Rhesus monkeys; assay type: in vivo; conditions: for Avg ANGPTL3 Protein Normalized to Pre-Treatment (Fasted): 4.0 mg/kg sc on day 1 and day 29
Procedure: ANGPTL3 RNAi agent AD05488 was further evaluated in high-fructose corn syrup (HFCS) diet-fed Rhesus monkeys. Rhesus monkeys were placed on an HFCS diet 37 days prior to dosing. These animals were known to develop increased plasma triglycerides greater than 180 mg/dL on the HFCS diet. On day 1 and again on day 29, four (4) Rhesus monkeys were administered a subcutaneous injection containing 4.0 mg/kg of ANGPTL3 RNAi agent AD05488 formulated in saline (n=4). Two additional Rhesus monkeys were administered normal saline control.
Fasted blood samples were drawn for analysis, and serum samples were analyzed on days-8 (predose), 8, 15, 21, 29, and 36. ANGPTL3 expression levels, triglycerides, total cholesterol, high-density lipoprotein (HDL), and low-density lipoprotein (LDL) in serum were measured on a Cobas® Integra 400 (Roche Diagnostics), according to the manufacturer's recommendations.
The ANGPTL3 protein levels, triglyceride levels, total cholesterol levels, HDL levels, and LDL levels for each animal were normalized. For normalization, the level of ANGPTL3 protein, triglyceride, HDL, and total cholesterol, respectively, for each animal at a time point, was divided by the pre-treatment level of expression in that animal (in this case at day −8) to determine the ratio of expression “normalized to pre-treatment.”

ANGPTL3 gene = assay: Example 14: RNAi agent and statin, serum LDL in LDLR knockout mice; assay type: in vivo, LDLR KO mice
Text: To evaluate the effect of co-administration of RNAi agents and statins in a disease model, LDLR KO mice were commercially obtained (The Jackson Laboratory). For three weeks prior to the onset of the study, forty-one (41) male 7 to 8 week old LDLR KO mice were placed on a high fat (“western”) diet (Teklad Custom Diets TD.88137), and remained on that diet throughout the duration of the study. Pre-dose serum samples were taken on study Day 1 after a four hour fast. The dosing regimen for the study is recited in the following Table 72:
• Mice were treated at 40 mg/kg for the first 11 days, then switched to 20 mg/kg thereafter.
The vehicle used for the oral gavage in the study was a 1:1 mixture of Ora-Plus®: Ora-Sweet® solution, which were acquired commercially. For the preparation of the atorvastatin oral gavage administrations, the respective desired dose of atorvastatin was first dissolved in sterile water (0.3 mL water per 1 mL of desired formulation) and vortexed until smooth, followed by the addition of a mixture of 1:1 Ora-Plus®: Ora-Sweet® solution (0.7 mL vehicle per 1 mL of desired formulation) and vortexed. On day 1 and for each day thereafter an oral gavage dose was administered for each of the Groups except for Group 2. On Day 23, Groups 1, 2, 3, and 4 received a single subcutaneous administration of 2.5 mg/kg dose ([…] solution) of an ANGPTL3 RNAi agent in D5W (dextrose in 5% water), or vehicle control (D5W) with no RNAi agent.
The RNAi agent tested (AD05488) included a modified sequence and an N-acetyl-galactosamine-containing targeting ligand conjugated to the 5′ terminal end of the sense strand. (See Tables 3, 4, and 5 for modified sequences and targeting ligand structures). The injections were performed between the skin and muscle (i.e. subcutaneous injections) into the loose skin over the neck and shoulder area. Serum was collected on days 8, 15, 22 (pre-RNAi agent injection), 29, 36, 43, and 50. LDLR KO mice were fasted for four hours prior to each collection.
ANGPTL3 protein levels in serum were measured by ELISA assay (R&D Systems), according to the manufacturer's recommendations. Among other biomarkers, triglycerides, total cholesterol, and low-density lipoprotein (LDL) in serum were measured on a Cobas® Integra 400 (Roche Diagnostics), according to the manufacturer's recommendations.
The ANGPTL3 protein levels, triglyceride levels, total cholesterol levels, HDL levels, and LDL levels for each animal were normalized. For normalization, respective levels of ANGPTL3 protein, TG, total cholesterol, or LDL for each animal at a time point was divided by the pre-treatment level of expression in that animal (in this case pre-dose levels on Day 1) to determine the ratio of expression “normalized to pre-treatment.” Data from the study set forth in this Example are shown in the following Tables 73-76: […]

Substance: AD05488: RNAi agent duplex: antisense AM07235-AS, sense AM07234-SS (antisense mU*fA*mC*fUmGfAmUfCmAfAmAfUmAfUmGfUmUfGmAfG*mC; sense {NAG37}*[invAb]*mGmCmUmCmAmAmCmAfUfAfUmUmUmGmAmUmCmAmGmUmA*[invAb])
- Avg ANGPTL3 Protein Normalized to Pre-Treatment (Fasted) (ANGPTL3 protein; Day 8): 0.229
- Avg ANGPTL3 Protein Normalized to Pre-Treatment (Fasted) (ANGPTL3 protein; Day 15): 0.154
- Avg ANGPTL3 Protein Normalized to Pre-Treatment (Fasted) (ANGPTL3 protein; Day 21): 0.116
- Avg ANGPTL3 Protein Normalized to Pre-Treatment (Fasted) (ANGPTL3 protein; Day 29): 0.114
- Avg ANGPTL3 Protein Normalized to Pre-Treatment (Fasted) (ANGPTL3 protein; Day 36): 0.064
- reduction in ANGPTL3 protein compared to pre-treatment (ANGPTL3 protein; each of the measured time points, 4.0 mg/kg on days 1 and 29, HFCS diet-fed Rhesus monkeys): significant reduction
- Avg LDL normalized to pre-treatment (ANGPTL3 gene; Group 2: no gavage, 2.5 mg/kg AD05488 SC on day 23, Day 8 (pre-RNAi agent injection)): 0.893
- Avg LDL normalized to pre-treatment (ANGPTL3 gene; Group 2: no gavage, 2.5 mg/kg AD05488 SC on day 23, Day 15 (pre-RNAi agent injection)): 1.051
- Avg LDL normalized to pre-treatment (ANGPTL3 gene; Group 2: no gavage, 2.5 mg/kg AD05488 SC on day 23, Day 22 (pre-RNAi agent injection)): 1.113
- Avg LDL normalized to pre-treatment (ANGPTL3 gene; Group 2: no gavage, 2.5 mg/kg AD05488 SC on day 23, Day 29): 0.653
- Avg LDL normalized to pre-treatment (ANGPTL3 gene; Group 2: no gavage, 2.5 mg/kg AD05488 SC on day 23, Day 36): 0.492
- Avg LDL normalized to pre-treatment (ANGPTL3 gene; Group 2: no gavage, 2.5 mg/kg AD05488 SC on day 23, Day 43): 0.443
- Avg LDL normalized to pre-treatment (ANGPTL3 gene; Group 2: no gavage, 2.5 mg/kg AD05488 SC on day 23, Day 50): 0.480
- Avg LDL normalized to pre-treatment (ANGPTL3 gene; Group 3: 10 mg/kg daily oral gavage atorvastatin, 2.5 mg/kg AD05488 on day 23, Day 8 (pre-RNAi agent injection)): 0.692
- Avg LDL normalized to pre-treatment (ANGPTL3 gene; Group 3: 10 mg/kg daily oral gavage atorvastatin, 2.5 mg/kg AD05488 on day 23, Day 15 (pre-RNAi agent injection)): 0.537
- Avg LDL normalized to pre-treatment (ANGPTL3 gene; Group 3: 10 mg/kg daily oral gavage atorvastatin, 2.5 mg/kg AD05488 on day 23, Day 22 (pre-RNAi agent injection)): 0.659
- Avg LDL normalized to pre-treatment (ANGPTL3 gene; Group 3: 10 mg/kg daily oral gavage atorvastatin, 2.5 mg/kg AD05488 on day 23, Day 29): 0.422
- Avg LDL normalized to pre-treatment (ANGPTL3 gene; Group 3: 10 mg/kg daily oral gavage atorvastatin, 2.5 mg/kg AD05488 on day 23, Day 36): 0.312
- Avg LDL normalized to pre-treatment (ANGPTL3 gene; Group 3: 10 mg/kg daily oral gavage atorvastatin, 2.5 mg/kg AD05488 on day 23, Day 43): 0.264
- Avg LDL normalized to pre-treatment (ANGPTL3 gene; Group 3: 10 mg/kg daily oral gavage atorvastatin, 2.5 mg/kg AD05488 on day 23, Day 50): 0.256
- Avg LDL normalized to pre-treatment (ANGPTL3 gene; Group 4: 20 mg/kg* daily oral gavage atorvastatin (40 mg/kg first 11 days), 2.5 mg/kg AD05488 on day 23, Day 8 (pre-RNAi agent injection)): 0.572
- Avg LDL normalized to pre-treatment (ANGPTL3 gene; Group 4: 20 mg/kg* daily oral gavage atorvastatin (40 mg/kg first 11 days), 2.5 mg/kg AD05488 on day 23, Day 15 (pre-RNAi agent injection)): 0.515
- Avg LDL normalized to pre-treatment (ANGPTL3 gene; Group 4: 20 mg/kg* daily oral gavage atorvastatin (40 mg/kg first 11 days), 2.5 mg/kg AD05488 on day 23, Day 22 (pre-RNAi agent injection)): 0.755
- Avg LDL normalized to pre-treatment (ANGPTL3 gene; Group 4: 20 mg/kg* daily oral gavage atorvastatin (40 mg/kg first 11 days), 2.5 mg/kg AD05488 on day 23, Day 29): 0.434
- Avg LDL normalized to pre-treatment (ANGPTL3 gene; Group 4: 20 mg/kg* daily oral gavage atorvastatin (40 mg/kg first 11 days), 2.5 mg/kg AD05488 on day 23, Day 36): 0.240
- Avg LDL normalized to pre-treatment (ANGPTL3 gene; Group 4: 20 mg/kg* daily oral gavage atorvastatin (40 mg/kg first 11 days), 2.5 mg/kg AD05488 on day 23, Day 43): 0.217
- Avg LDL normalized to pre-treatment (ANGPTL3 gene; Group 4: 20 mg/kg* daily oral gavage atorvastatin (40 mg/kg first 11 days), 2.5 mg/kg AD05488 on day 23, Day 50): 0.242
- total reductions in LDL (ANGPTL3 gene; co-administration of atorvastatin and RNAi agent (Groups 3 and 4), LDLR KO mice on high fat diet): ~ 80%

Source: US12729377B2, “RNAi agents and compositions for inhibiting expression of angiopoietin-like 3 (ANGPTL3), and methods of use” (Arrowhead Pharmaceuticals, Inc., priority 2017, dated 2026)
